From paper PMC7550284, “The functional cooperation of 5-HT1A and mGlu4R in HEK-293 cell line” (Pharmacological Reports, 2020)

Experiments:
mGlu4R [1] = assay: Forskolin-induced cAMP accumulation in T-REx 293 cells expressing both 5-HT1A-HALO and mGlu4R-SNAP, L-glutamate response; type: cell-based, human; settings: without tetracycline induction (−Tet); curve parameters impossible to determine
Method: (§1) The cell line was maintained in DMEM medium supplemented with 10% FBS (tetracycline free), 2 mM Glutamax I (Lonza,), 100 µg/mL Zeocin and 10 µg/mL blasticidin (Invitrogen). T-REx 293 cells were treated with a mixture of plasmids (0.1 µg pTet-SNAP-GRM4 and 0.9 µg pOG44) and GeneJuice transfection reagent according to the manufacturer’s instructions (Novagen). After 48 h, selection for the stably integrated plasmid with 100 µg/mL hygromycin B (Invitrogen) began. In parallel experiments, the HALO-5-HT1A plasmid was introduced into T-REx 293 cells or cells with the inducible expression of SNAP-GRM4 to generate a cell line that expressed both receptors. In the double expression system (as well as in other experiments), 5-HT1A was stably expressed, and mGlu4R expression was induced by tetracycline treatment (+ Tet; 0.75 µg/mL) (Fig. S3). One additional cell line was generated by cloning the 5-HT1A insert (BamHI/XhoI) into the pSNAPf vector ([…]).
(§2) Each experiment was performed three times (n = 3), and each data point was in triplicate. The curves for the data shown were fitted to a three-parameter logistic equation, allowing for the determination of IC50 values and Emax. For comparison of IC50 between the curves, t test was applied. The ONE way ANOVA and Tukey’s post hoc test were used for in vitro receptor interaction assays statistics.

5-HT1A receptor [2] = target: T1, 5-HT1A receptor (Homo sapiens, UniProt P08908); assay: Forskolin-induced cAMP accumulation (HTRF) in T-REx-293-h5-HT1A-SNAP cells; type: cell-based; settings: cAMP assay, Fig. 1b
T1 construct: expressed in transfected cells
T1 sequence (P08908 1-422): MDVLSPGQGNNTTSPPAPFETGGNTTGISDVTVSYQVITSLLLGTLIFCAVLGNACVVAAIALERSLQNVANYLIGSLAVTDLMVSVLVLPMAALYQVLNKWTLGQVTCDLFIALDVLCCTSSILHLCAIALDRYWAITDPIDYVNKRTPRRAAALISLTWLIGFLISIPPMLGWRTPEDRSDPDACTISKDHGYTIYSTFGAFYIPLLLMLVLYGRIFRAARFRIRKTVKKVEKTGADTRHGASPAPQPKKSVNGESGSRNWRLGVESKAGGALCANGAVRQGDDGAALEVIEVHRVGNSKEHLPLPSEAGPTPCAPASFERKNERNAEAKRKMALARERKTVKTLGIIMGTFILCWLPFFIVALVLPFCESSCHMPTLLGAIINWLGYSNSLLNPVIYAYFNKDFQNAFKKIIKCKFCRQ
Method: as §1, §2

[3] = target: T2, hmGlu4 receptor homodimer (Homo sapiens, UniProt Q14833); assay: HTRF-FRET receptor interaction assay, mGlu4-SNAP homodimers (Snap-Tb/Snap-Green); type: cell-based; settings: in presence of L-glutamate; VU0155041 10 μM, LY341495 100 µM
T2 construct: expressed in transfected cells
T2 sequence (Q14833 33-912): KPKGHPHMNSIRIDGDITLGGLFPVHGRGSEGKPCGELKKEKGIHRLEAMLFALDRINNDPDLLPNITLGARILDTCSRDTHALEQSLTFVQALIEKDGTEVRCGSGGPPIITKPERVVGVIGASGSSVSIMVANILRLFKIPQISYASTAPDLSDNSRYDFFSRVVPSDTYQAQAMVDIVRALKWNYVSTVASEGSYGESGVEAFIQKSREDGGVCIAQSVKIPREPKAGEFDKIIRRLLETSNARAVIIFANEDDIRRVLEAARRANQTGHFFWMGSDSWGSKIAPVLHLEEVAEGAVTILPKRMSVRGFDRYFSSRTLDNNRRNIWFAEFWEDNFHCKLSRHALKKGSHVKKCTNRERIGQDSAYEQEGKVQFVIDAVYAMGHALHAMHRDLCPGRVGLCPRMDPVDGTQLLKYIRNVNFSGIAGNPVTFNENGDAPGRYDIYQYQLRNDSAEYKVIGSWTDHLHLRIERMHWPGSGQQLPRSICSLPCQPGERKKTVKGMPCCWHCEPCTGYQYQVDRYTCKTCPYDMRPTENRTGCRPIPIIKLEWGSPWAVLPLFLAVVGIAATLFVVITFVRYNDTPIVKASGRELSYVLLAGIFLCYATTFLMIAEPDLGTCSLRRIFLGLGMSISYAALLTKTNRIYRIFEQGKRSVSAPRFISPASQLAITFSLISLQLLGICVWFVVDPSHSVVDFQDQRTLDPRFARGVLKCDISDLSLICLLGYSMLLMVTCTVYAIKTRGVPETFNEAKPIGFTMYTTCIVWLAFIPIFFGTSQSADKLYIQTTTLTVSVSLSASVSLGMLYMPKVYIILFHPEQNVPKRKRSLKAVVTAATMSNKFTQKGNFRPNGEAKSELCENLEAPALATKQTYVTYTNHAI
Method: The intermolecular interaction was presented as a ratio (FRET/Snap-Tb) x10e^4.
A homogenous time-resolved FRET assay was used to analyze the interaction between receptors labeled with Snap-Tb and Snap-green. For each experiment, a group named “mix cells” (1:1) was added, which corresponded to a mixture of cells separately labeled with one substrate depending on the experimental procedure and mixed immediately before FRET measurement.

5-HT1A receptor [4] = target: T1, 5-HT1A receptor; assay: Forskolin-induced cAMP accumulation in T-REx 293 cells expressing both 5-HT1A-HALO and mGlu4R-SNAP, 5-HT1A agonist response; type: cell-based; settings: +Tet
Method: as §1, §2

mGlu4R [5] = target: T3, mGlu4R (Homo sapiens, UniProt Q14833); assay: Forskolin-induced cAMP accumulation in T-REx 293 cells expressing both 5-HT1A-HALO and mGlu4R-SNAP, L-glutamate response; type: cell-based; settings: SSZ 100 μM; +Tet
T3 construct: expressed in transfected cells
T3 sequence (Q14833 33-912): as above
Method: as §1, §2

N[C@@H](CCC(=O)O)C(=O)O [L-glutamate]
Effect on forskolin-induced cAMP accumulation without induction of mGlu4 receptor expression (mGlu4R [1]): not effective

COc1ccccc1N1CCN(CC(C(=O)NC(C)(C)C)c2ccccc2)CC1 (stereo not drawn) [WAY100135]
Effect of antagonist on the agonist (R)-(+)-8-OH DPAT Emax (5-HT1A receptor [2]): totally abolished

O=C(Nc1cc(Cl)cc(Cl)c1)[C@H]1CCCC[C@H]1C(=O)O [VU0155041]
Effect on FRET signal / interaction between mGluR4 monomers [3]: enhanced interaction

O=C(O)c1cc(/N=N/c2ccc(S(=O)(=O)Nc3ccccn3)cc2)ccc1O [Sulfasalazine, sulfasalazine]
Effect of sulfasalazine treatment on 5-HT1A activity in presence of mGlu4 receptors (5-HT1A receptor [4]; SSZ 100 μM, versus cells without SSZ): significantly enhanced | Effect of sulfasalazine treatment on the dose–response curve of glutamate (mGlu4R [5]): shifted the dose–response curve of glutamate to the left

CCCN(CCC)[C@@H]1CCc2cccc(O)c2C1 [(R)-(+)-8-OH DPAT, (R)-(+)-8-hydroxy-DPAT]
Effect on forskolin-stimulated cAMP accumulation after induction of mGlu4 receptor expression (5-HT1A receptor [4]): abolished
